# Experimental data as given in patent US7365231B2, “Compound with antitumor activity and preparation method therefor” (National Taiwan University of Science & Technology, priority 2005, dated 2008).
# Columns and labels:
# [1] = system: human colon cancer Colo 205 xenografts; assay: In vivo antitumor effect of DPA and/or CPT-11, xenografts; set-up: species or system ICR nude mice; details: DPA 20 mg/kg i.p. twice a week; end of experiment
# Procedure: To further investigate whether DPA could enhance the antitumoral activity of the chemotherapeutic agent CPT-11, Colo 205 cells were treated with DPA or DPA in combination with CPT-11. Cancer cells were transplanted into ICR nude mice, and when the tumors were palpable (30˜35 mm^3), the mice were treated either with vehicle control, CPT-11 or DPA (20 mg/kg, i.p., twice a week). Tumour volume(V) was calculated according to the following formula: V(mm^3)=0.4AB^2, where A and B are the longest diameter and the shortest diameter, respectively (Cancer Res. 1966; 26:1787-1800). […] The tumor size of DPA in combination with CPT-11-treated mice was a 73% decrease as compared with that of CPT-11-treated mice.
# [2] = Toxicity, body weight and histology, DPA twice a week; assay type: in vivo, ICR nude mice
# [3] = system: HT-29 cells; assay: Cell cycle analysis by flow cytometry; assay type: cell-based, human
# Procedure: […] […] HT-29 cells were mainly in G0/G1 phase (84.1-86.0%), and only a few percent of cells in S phase (7.4-8.0%) after exposure to 4 μM DPA for 48-72 h. […] The G0/G1 arrest was not induced in the HCT-15 cells treated with 1-8 μM DPA for 24-72 h. […] DPA exerted the dose specific effect for the induced G0/G1 arrest on Colo 205 cells. […] In addition, we noted that DPA-mediated accumulation of Colo205 and HT 29 cells in G1 phase (>80%) was similar to that of DPD (Anti-Cancer Drug 2004; 15:277-80). It is likely that the induced G1-arrest without concomitant apoptosis on Colo 205 and HT 29 colon cancer cells is one unique property of structure I.
# [4] = system: HCT-15 cells; assay: Cell cycle analysis by flow cytometry; assay type: cell-based, human
# Procedure: (§1) The cell cycle progression of Colo205, HT 29 and HCT-15 cells was examined using flow cytometry after exposure to 1, 2, 4 or 8 μM DPA for 72 hours. […] HT-29 cells were mainly in G0/G1 phase (84.1-86.0%), and only a few percent of cells in S phase (7.4-8.0%) after exposure to 4 μM DPA for 48-72 h. […] The G0/G1 arrest was not induced in the HCT-15 cells treated with 1-8 μM DPA for 24-72 h. […] DPA exerted the dose specific effect for the induced G0/G1 arrest on Colo 205 cells. […] In addition, we noted that DPA-mediated accumulation of Colo205 and HT 29 cells in G1 phase (>80%) was similar to that of DPD (Anti-Cancer Drug 2004; 15:277-80). It is likely that the induced G1-arrest without concomitant apoptosis on Colo 205 and HT 29 colon cancer cells is one unique property of structure I.
# [5] = system: Colo 205 cells; assay: Cell cycle analysis by flow cytometry; assay type: cell-based, human
# Procedure: as §1
# [6] = system: Colo 205 cells; assay: Reversibility of DPA-induced growth inhibition after drug withdrawal; assay type: cell-based, human
# Procedure: To further investigate whether the DPA-induced growth inhibition was reversible, Colo 205 cells were treated with DPA for 72 hours, and the cells were withdrawn from DPA by culturing in fresh medium for another 48 or 72 hours. […] One possibility is that the relatively lipophilic nature of DPA or DPD reduced cellular efflux after the initial drug exposure. It is inferred that the irreversible property of adamantane and diamantane derivatives provides an advantage to prolong the anticancer activity.
structure (smiles),measurement,setting,value
"Nc1ccc(Oc2ccc(C3(c4ccc(Oc5ccc(N)c(O)c5)cc4)C4CC5CC(C4)CC3C5)cc2)cc1O [DPA, 2,2-bis(4-(4-amino-3-hydroxyphenoxy)phenyl)adamantane]",tumor size compared to control groups,[1],significantly (P<0.05) decreased
same,acute toxicity,"[2]; DPA 20~80 mg/kg, i.p., twice a week",no obviously acute toxicity
same,body weight,"[2]; DPA-treated mice, twice a week",no significant reduction in body weight
same,"tissue damage in liver, lung and kidney",[2]; tissue slices stained with haematoxylin and eosin,no tissue damage was observed
same,G0/G1 cell-cycle arrest and apoptosis,[3]; HT 29,G0/G1 cell-cycle arrest without concomitant apoptosis
same,accumulation of cells in G1 phase,[3]; HT 29,> 80%
same,cells in G0/G1 phase,"[3]; HT-29, 4 μM DPA for 48-72 h",84.1-86.0%
same,cells in S phase,"[3]; HT-29, 4 μM DPA for 48-72 h",7.4-8.0%
same,G0/G1(%),"[3]; HT-29, DPA 1 μM, 24 h",56.6%
same,G2/M(%),"[3]; HT-29, DPA 1 μM, 24 h",10.3%
same,S(%),"[3]; HT-29, DPA 1 μM, 24 h",33.1%
same,G0/G1(%),"[3]; HT-29, DPA 1 μM, 48 h",61.6%
same,G2/M(%),"[3]; HT-29, DPA 1 μM, 48 h",9.4%
same,S(%),"[3]; HT-29, DPA 1 μM, 48 h",29.0%
same,G0/G1(%),"[3]; HT-29, DPA 1 μM, 72 h",72.6%
same,G2/M(%),"[3]; HT-29, DPA 1 μM, 72 h",7.3%
same,S(%),"[3]; HT-29, DPA 1 μM, 72 h",20.1%
same,G0/G1(%),"[3]; HT-29, DPA 2 μM, 24 h",67.0%
same,G2/M(%),"[3]; HT-29, DPA 2 μM, 24 h",10.0%
same,S(%),"[3]; HT-29, DPA 2 μM, 24 h",23.1%
same,G0/G1(%),"[3]; HT-29, DPA 2 μM, 48 h",77.5%
same,G2/M(%),"[3]; HT-29, DPA 2 μM, 48 h",4.7%
same,S(%),"[3]; HT-29, DPA 2 μM, 48 h",17.8%
same,G0/G1(%),"[3]; HT-29, DPA 2 μM, 72 h",67.3%
same,G2/M(%),"[3]; HT-29, DPA 2 μM, 72 h",2.9%
same,S(%),"[3]; HT-29, DPA 2 μM, 72 h",29.9%
same,G0/G1(%),"[3]; HT-29, DPA 4 μM, 24 h",72.1%
same,G2/M(%),"[3]; HT-29, DPA 4 μM, 24 h",10.9%
same,S(%),"[3]; HT-29, DPA 4 μM, 24 h",17.1%
same,G0/G1(%),"[3]; HT-29, DPA 4 μM, 48 h",84.1%
same,G2/M(%),"[3]; HT-29, DPA 4 μM, 48 h",8.5%
same,S(%),"[3]; HT-29, DPA 4 μM, 48 h",7.4%
same,G0/G1(%),"[3]; HT-29, DPA 4 μM, 72 h",86.0%
same,G2/M(%),"[3]; HT-29, DPA 4 μM, 72 h",6.1%
same,S(%),"[3]; HT-29, DPA 4 μM, 72 h",8.0%
same,G0/G1(%),"[3]; HT-29, DPA 8 μM, 24 h",77.0%
same,G2/M(%),"[3]; HT-29, DPA 8 μM, 24 h",9.6%
same,S(%),"[3]; HT-29, DPA 8 μM, 24 h",13.3%
same,G0/G1(%),"[3]; HT-29, DPA 8 μM, 48 h",79.5%
same,G2/M(%),"[3]; HT-29, DPA 8 μM, 48 h",10.0%
same,S(%),"[3]; HT-29, DPA 8 μM, 48 h",10.6%
same,G0/G1(%),"[3]; HT-29, DPA 8 μM, 72 h",86.3%
same,G2/M(%),"[3]; HT-29, DPA 8 μM, 72 h",6.2%
same,S(%),"[3]; HT-29, DPA 8 μM, 72 h",7.5%
same,cells in G2/M phase,[4]; 8 μM DPA for 24-48 h,6.9-7.6%
same,G0/G1 arrest,[4]; 1-8 μM DPA for 24-72 h,not induced
same,G0/G1(%),"[4]; DPA 1 μM, 24 h",31.4%
same,G2/M(%),"[4]; DPA 1 μM, 24 h",18.1%
same,S(%),"[4]; DPA 1 μM, 24 h",50.6%
same,G0/G1(%),"[4]; DPA 1 μM, 48 h",39.1%
same,G2/M(%),"[4]; DPA 1 μM, 48 h",15.8%
same,S(%),"[4]; DPA 1 μM, 48 h",45.1%
same,G0/G1(%),"[4]; DPA 1 μM, 72 h",51.8%
same,G2/M(%),"[4]; DPA 1 μM, 72 h",13.2%
same,S(%),"[4]; DPA 1 μM, 72 h",35.0%
same,G0/G1(%),"[4]; DPA 2 μM, 24 h",31.8%
same,G2/M(%),"[4]; DPA 2 μM, 24 h",14.2%
same,S(%),"[4]; DPA 2 μM, 24 h",54.0%
same,G0/G1(%),"[4]; DPA 2 μM, 48 h",35.2%
same,G2/M(%),"[4]; DPA 2 μM, 48 h",16.0%
same,S(%),"[4]; DPA 2 μM, 48 h",48.8%
same,G0/G1(%),"[4]; DPA 2 μM, 72 h",49.2%
same,G2/M(%),"[4]; DPA 2 μM, 72 h",14.3%
same,S(%),"[4]; DPA 2 μM, 72 h",36.6%
same,G0/G1(%),"[4]; DPA 4 μM, 24 h",30.6%
same,G2/M(%),"[4]; DPA 4 μM, 24 h",11.2%
same,S(%),"[4]; DPA 4 μM, 24 h",58.2%
same,G0/G1(%),"[4]; DPA 4 μM, 48 h",30.5%
same,G2/M(%),"[4]; DPA 4 μM, 48 h",14.3%
same,S(%),"[4]; DPA 4 μM, 48 h",55.3%
same,G0/G1(%),"[4]; DPA 4 μM, 72 h",40.8%
same,G2/M(%),"[4]; DPA 4 μM, 72 h",17.2%
same,S(%),"[4]; DPA 4 μM, 72 h",42.1%
same,G0/G1(%),"[4]; DPA 8 μM, 24 h",39.6%
same,G2/M(%),"[4]; DPA 8 μM, 24 h",6.9%
same,S(%),"[4]; DPA 8 μM, 24 h",53.5%
same,G0/G1(%),"[4]; DPA 8 μM, 48 h",37.5%
same,G2/M(%),"[4]; DPA 8 μM, 48 h",7.6%
same,S(%),"[4]; DPA 8 μM, 48 h",54.9%
same,G0/G1(%),"[4]; DPA 8 μM, 72 h",38.2%
same,G2/M(%),"[4]; DPA 8 μM, 72 h",11.9%
same,S(%),"[4]; DPA 8 μM, 72 h",49.9%
same,accumulation of cells in G1 phase,[5]; Colo205,> 80%
same,G2/M(%),"[5]; Colo 205, DPA 1 μM, 72 h",10.1%
same,S(%),"[5]; Colo 205, DPA 1 μM, 72 h",29.6%
same,proliferation activity after removal of DPA,"[6]; 1 μM DPA 72 h, then 48-72 hours in fresh medium",reversed and returned to control level
same,reversal of growth inhibition after removal of DPA,"[6]; 2, 4 or 8 μM DPA 72 h, then 48-72 hours in fresh medium",no reversal effect
same,cell viability,"[6]; haemocytometer, treated cells except 8 μM DPA",> 90%
